Laboratory results reported in ChEMBL document CHEMBL1141704, “Substituted ajoenes as novel anti-cancer agents” (Bioorg Med Chem Lett, 2008).

What follows are compounds tested on Fibroblast (assay: Anticancer activity against cobalt radiation CT-1 transformed fibroblasts).
Format: functional, cell-based

SMILES	IC50 [µM]
C=CCSS/C=C/C[S+]([O-])Cc1ccccc1 (stereo not drawn)	16.6
C=CCSS/C=C\C[S+]([O-])CCC (stereo not drawn)	17
C=CCSS/C=C\C[S+]([O-])CCCO (stereo not drawn)	22.8
C=CCSS/C=C/C[S+]([O-])C(C)(C)C (stereo not drawn)	33.1
C=CCSS/C=C/C[S+]([O-])CCCN1C(=O)c2ccccc2C1=O (stereo not drawn)	95.9
C=CCSS/C=C/C[S+]([O-])CCCOCc1ccc(OC)cc1 (stereo not drawn)	23.5
C=CCSS/C=C\C[S+]([O-])CC=C (stereo not drawn) [(Z)-Ajoene]	15.5
C=CCSS/C=C/C[S+]([O-])CCC (stereo not drawn)	26.7
C=CCSS/C=C/C[S+]([O-])CC=C (stereo not drawn) [AJOENE]	17.6
C=CCSS/C=C/C[S+]([O-])Cc1ccc(OC)cc1 (stereo not drawn)	11.2
C=CCSS/C=C\C[S+]([O-])CCCN1C(=O)c2ccccc2C1=O (stereo not drawn)	34.6
C=CCSS/C=C\C[S+]([O-])CCCOCc1ccc(OC)cc1 (stereo not drawn)	21.7
C=CCSS/C=C/C[S+]([O-])CCCO (stereo not drawn)	23.1
